Assay results reported in paper PMC11967380, “Rapid Determination of Xa Inhibitor Activity in Blood Using a Microfluidic Device that Measures Platelet Deposition and Fibrin Generation Under Flow” (TH Open: Companion Journal to Thrombosis and Haemostasis, 2025).

How the values were obtained:
[1] = tested on: whole blood clotting on collagen/tissue factor (platelet and fibrin deposition); test: DOAC reversal and detection in blood of DOAC-treated patients (microfluidic platelet and fibrin signal); format: cell-based, human; conditions: 5,000 nM matching DOAC added ex vivo to patient blood, all subjects
From the text: Platelets were labeled in whole blood by the addition of an AlexaFluor 488-conjugated anti-CD61 molecule (Bio-Rad Laboratories) and fibrin was quantified via the addition of AlexaFluor 594-conjugated fibrinogen (Life Technologies Co.), as previously described. Chips were mounted on a Lumascope 620 (Etaluma Inc.) LED epifluorescence microscope with a 2.5× objective (Meiji Techno). Each chip was primed with 1% bovine serum albumin (BSA) in HEPES-buffered saline (HBS) to passivate the surfaces ( Fig. 1A ). A volume of 60 μL of whole blood was added to each inlet well. A vacuum pressure of 140 mbar was applied to the outlet to yield an initial wall shear rate of 200 s ^−1 . Fluorescence images were captured at 10 s intervals for green and red LED channels to obtain kinetic data for platelet and fibrin deposition on the collagen/TF zone for up to 25 min. Images were analyzed with ImageJ to calculate the average pixel brightness of an inner 200 μm by 200 μm region within each clot.
For DOAC-treated patients on either rivaroxaban or apixaban, blood samples were obtained and analyzed, using the microfluidic device to measure platelets and fibrin deposition under flow as described above. […] For subjects 1 through 19, fluorescence data were collected for 15 minutes. […]
Statistical significance was calculated for paired t -tests, using GraphPad Prism 9 (GraphPad Software). […]

[2] = set-up: method as in PMID 31089975, PMID 23999929; conditions: cited from earlier work

| SMILES | fibrin signal [1] | plasma protein binding [2] |
| --- | --- | --- |
| COc1ccc(-n2nc(C(N)=O)c3c2C(=O)N(c2ccc(N4CCCCC4=O)cc2)CC3)cc1 [apixaban] | nearly fully suppressed | high |
| O=C(NC[C@H]1CN(c2ccc(N3CCOCC3=O)cc2)C(=O)O1)c1ccc(Cl)s1 [rivaroxaban] | nearly fully suppressed | high |
